Like-named read-outs stand apart in the source and are kept apart here.
Legend:
ROCK I [1] = molecular target: T1, ROCK I (Homo sapiens, UniProt Q13464); experiment: Rho kinase activity assay (Cyclex CY-1160 kit); format: biochemical
T1 construct: purchased Cyclex, Nagoya, Japan CY-1160
Experimental: Briefly, the compounds at 20 μM were pre-incubated in a system wherein ROCK I (0.02 ng/μL) phosphorylates the kinase substrate’s myosin-binding subunit (MBS) pre-absorbed onto the microplate in the presence of Mg^2+ and ATP. Then, the system was washed after incubation at 30 °C for 30 min. 100 μL of horseradish peroxidase-conjugated anti-AF20 antibody was added to the wells and then incubated for 30 min at room temperature. The reaction system was then incubated with the substrate tetra-methylbenzidine (TMB), which can be catalyzed from a colorless solution to a blue solution. The absorbance was measured at a wavelength of 450 nm on a microplate reader. The color reflects the relative level of ROCK I activity. The inhibitory rates of the compounds on ROCK I were obtained from OD 450 nm and the IC50 values were calculated by nonlinear regression.

rat aortic rings [2] = experiment: Vasorelaxant activity test, high-potassium model; details: rat aortic rings constricted with high K+ (60 mmol/L); a: mean N = 6; b: single determination; -- = No activity
Description: (§1) Abnormalities in the Rho/ROCK signaling pathway are associated with various cardiovascular diseases, especially hypertension. The inhibition of the Rho/ROCK pathway can cause the vessels to relax. The norepinephrine (NE)- or potassium chloride (KCl)-induced model of the rat aortic ring can trigger sustained vessel contraction and is usually used to evaluate vasorelaxant activity. DL0805 has shown vasorelaxant activity. Therefore, the nine compounds with significant inhibition against ROCK I were further tested for their vasorelaxant activity in rat aortic rings in both the high-potassium and NE models (Table 3). […] The potent active compound 4b with excellent activity has been further evaluated, and further pharmacokinetic and safety evaluations are in progress.
(§2) Male Sprague-Dawley rats weighing 240–280 g (Vital River Laboratories, Beijing, China) were maintained in a 12-h light/dark cycle at 24 °C in a relative humidity of 60% room, and received food and water ad libitum. The animal care and handling were performed in accordance with the Guide for the Care and Use of Laboratory Animals published by the US National Institutes of Health and the Laboratories Institutional Animal Care and Use Committee of the Chinese Academy of Medical Science and Peking Union Medical College (ethic approval number: 00001012).
(§3) The vasorelaxant activity assay was performed as described previously. Briefly, the descending thoracic aorta was isolated after rats were euthanized by cervical dislocation. Then, the aorta was cut into ring segments (3–4 mm in length). The endothelial layer of the aorta was destroyed by gently rubbing the luminal surface with a moist cotton swab when necessary. Two stainless-steel triangles were inserted into the lumen of each ring. One triangle was fixed, and the other attached to a force transducer. Changes in isometric force were recorded on a BIOPAC polygraph (MP100WSW, Biopac Systems, Inc, Goleta, CA, USA). The rings were mounted in organ baths containing 10 mL Krebs-Henseleit (K-H) buffer with the following composition (mM): NaCl 120, KCl 4.8, MgSO4 1.4, KH2PO4 1.2, glucose 11.0, CaCl2 2.5, NaHCO3 25.0 and EDTA 0.01. The K-H buffer was continuously bubbled with 95% O2/5% CO2 at 37 °C. Rings were allowed to equilibrate for 60 min at a resting tension of 1.2 g with changes of buffer every 20 min.
(§4) After the equilibration period, the aortic rings were constricted with a high K^+ (60 mM) K-H solution to stimulate the tissue and to test its availability. Then, the rings were washed with normal K-H buffer to restore the basic tension of 1.2 g. The aortic rings were then stimulated with a high K^+ (60 mmol/L) K-H buffer ornorepinephrine (1 μM) to evaluate the vasorelaxant effects of the compounds. When the contraction reached the platform, compounds were added to the bath in batches at 5-min intervals to reach the accumulative concentrations of 1, 2, 5, 10, 25 and 50 μM. The tension of vessels was recorded and nonlinear regression was used to calculate the EC50 values.

rat aortic rings [3] = experiment: Vasorelaxant activity test, NE model; details: rat aortic rings constricted with norepinephrine (1 μM); a: mean N = 6; b: single determination; -- = No activity
Description: as §1, §2, §3, §4

ROCK I [4] = molecular target: T1, ROCK I; design: method as in PMID 22609784; details: lead discovered by high-throughput screening, previous article; read-out: IC50 against ROCK I; cited from earlier work

T1 sequence (Q13464 whole entry, species assumed): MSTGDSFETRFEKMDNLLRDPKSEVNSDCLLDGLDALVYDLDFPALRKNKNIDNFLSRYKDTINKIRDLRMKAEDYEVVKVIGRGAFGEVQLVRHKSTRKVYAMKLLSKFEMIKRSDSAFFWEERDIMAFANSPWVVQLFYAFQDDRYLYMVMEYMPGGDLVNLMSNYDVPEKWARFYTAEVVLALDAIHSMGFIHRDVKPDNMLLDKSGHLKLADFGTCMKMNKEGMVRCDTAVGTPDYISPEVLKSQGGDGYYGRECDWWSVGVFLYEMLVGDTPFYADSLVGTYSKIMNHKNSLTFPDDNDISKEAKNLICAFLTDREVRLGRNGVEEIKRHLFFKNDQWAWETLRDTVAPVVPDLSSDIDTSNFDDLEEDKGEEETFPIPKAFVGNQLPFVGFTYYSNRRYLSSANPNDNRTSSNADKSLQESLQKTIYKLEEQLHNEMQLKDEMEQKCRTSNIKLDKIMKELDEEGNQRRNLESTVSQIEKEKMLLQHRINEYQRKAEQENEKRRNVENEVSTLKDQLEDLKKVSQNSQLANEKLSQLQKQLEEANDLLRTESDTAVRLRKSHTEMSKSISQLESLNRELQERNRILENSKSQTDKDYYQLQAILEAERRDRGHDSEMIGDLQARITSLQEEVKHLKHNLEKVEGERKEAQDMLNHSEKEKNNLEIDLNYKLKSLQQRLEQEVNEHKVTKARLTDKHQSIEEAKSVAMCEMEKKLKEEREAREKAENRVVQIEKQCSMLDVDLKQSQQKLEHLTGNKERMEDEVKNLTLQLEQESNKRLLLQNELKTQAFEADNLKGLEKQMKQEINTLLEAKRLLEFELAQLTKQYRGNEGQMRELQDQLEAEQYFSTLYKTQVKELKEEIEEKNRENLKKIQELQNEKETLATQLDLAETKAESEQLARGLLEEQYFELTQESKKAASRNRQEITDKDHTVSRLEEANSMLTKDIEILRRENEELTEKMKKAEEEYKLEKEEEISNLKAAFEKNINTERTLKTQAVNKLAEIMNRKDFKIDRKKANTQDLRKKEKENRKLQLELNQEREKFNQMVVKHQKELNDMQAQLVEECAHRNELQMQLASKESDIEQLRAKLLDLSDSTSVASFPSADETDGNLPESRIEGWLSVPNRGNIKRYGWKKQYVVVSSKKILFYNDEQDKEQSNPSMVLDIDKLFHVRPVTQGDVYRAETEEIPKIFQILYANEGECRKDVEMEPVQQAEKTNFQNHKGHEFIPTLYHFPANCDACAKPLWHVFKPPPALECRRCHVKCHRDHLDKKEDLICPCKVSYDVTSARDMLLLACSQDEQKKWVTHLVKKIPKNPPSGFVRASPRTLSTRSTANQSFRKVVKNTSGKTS

N#Cc1n[nH]c2ccc([N+](=O)[O-])cc12 [DL0805, 5-Nitro-1H-indazole-3-carbonitrile, reference compound]
IC50 (ROCK I [1]; a: means of multiple experiments (N = 4), errors within 30% of the mean, b: single determinations, read-out: IC50 against ROCK I): 6.67 µM | inhibition at 20 µM (ROCK I [1]; compound concentration 20 μM, single determinations): 72.3% | EC50 (rat aortic rings [2]): 9.44 µM | EC50 (rat aortic rings [3]): 28.8 µM | IC50 (ROCK I [4]): 6.7 µM

— publication PMC6151428, “Discovery of Novel N-Substituted Prolinamido Indazoles as Potent Rho Kinase Inhibitors and Vasorelaxation Agents” (Molecules : A Journal of Synthetic Chemistry and Natural …, 2017)
